# Biological target: T1, estrogen receptor alpha (ESR1) in MCF7 breast cancer cells (Homo sapiens, UniProt P03372)
# T1 sequence (P03372 1-595): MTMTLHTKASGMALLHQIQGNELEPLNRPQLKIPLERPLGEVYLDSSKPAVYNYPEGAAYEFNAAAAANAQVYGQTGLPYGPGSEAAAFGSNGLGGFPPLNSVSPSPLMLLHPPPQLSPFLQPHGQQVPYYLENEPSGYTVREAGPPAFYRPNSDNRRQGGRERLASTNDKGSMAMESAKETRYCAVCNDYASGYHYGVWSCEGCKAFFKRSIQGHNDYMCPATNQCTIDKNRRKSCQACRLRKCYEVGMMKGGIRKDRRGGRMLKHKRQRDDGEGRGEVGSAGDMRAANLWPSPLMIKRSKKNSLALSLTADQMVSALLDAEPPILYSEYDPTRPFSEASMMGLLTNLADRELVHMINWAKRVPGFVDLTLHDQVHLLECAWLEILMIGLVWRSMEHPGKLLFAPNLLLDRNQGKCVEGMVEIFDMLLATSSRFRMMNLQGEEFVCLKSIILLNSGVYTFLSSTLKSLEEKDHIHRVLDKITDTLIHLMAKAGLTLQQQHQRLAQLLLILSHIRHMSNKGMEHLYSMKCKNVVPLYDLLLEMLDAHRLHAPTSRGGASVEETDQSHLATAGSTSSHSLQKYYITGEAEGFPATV
# Test: Breast Cancer Cell ERa High Content Fluorescence Imaging Degradation Assay (ER-alpha MCF7 HCS)
# Format: cell-based
# Design: endogenous in cells; host or cells: MCF7 breast cancer cells; key to ERalpha (WT) MCF7HCS (Sinf): % change in ERα level; DMSO = 0%, fulvestrant = 100% change
# Conditions: 4 hours, plateau of the maximal effect, DMSO and fulvestrant define 0% and 100% change in ESR1, Table 1a
# Description: All of the exemplary Formula I, II, and III compounds in Tables 1a and 1b were made and characterized by LCMS [M+H]^+ (liquid chromatography mass spectroscopy) with detection of parent ion. All of the exemplary Formula I, II, and III compounds in Tables 1a and 1b were tested for binding to ERa (Estrogen Receptor alpha) and biological activity according to the assays, protocols, and procedures of Examples 901-907. ER-alpha MCF7 HCS Sinf (%) values in Tables 1a and 1b were measured by the Breast Cancer Cell ERa High Content Fluorescence Imaging Degradation Assay of Example 901. ER-alpha MCF7 HCS EC50 (μM) values in Tables 1a and 1b were measured by the in vitro cell proliferation assays described in Examples 902 and 903. The rat uterine wet weight assays of Examples 906 and 907 allow rapid determination of compound antagonist activity in an ER responsive tissue (immature rat uterus) while competing against the native ER ligand estradiol, i.e. antagonist mode (Ashby, J.; et al (1997) Regulatory toxicology and pharmacology: RTP, 25 (3):226-31). Exemplary Formula I, II, and III compounds in Tables 1a and 1b have the following structures, corresponding names (ChemBioDraw, Version 12.0.2, CambridgeSoft Corp., Cambridge Mass.), and biological activity. Where more than one name is associated with a Formula I, II, and III compound or intermediate, the chemical structure shall define the compound.
# MCF7 breast cancer cells were seeded on day 1 at a density of 10,000 cells per well in 384 well poly-lysine coated tissue culture plate (Greiner # T-3101-4), in 50 μL/well RPMI (phenol red free), 10% FBS (Charcoal stripped), containing L-glutamine. On day 2, compounds were prepared at 2 compound source concentrations: 100 μM and 1 μM (ultimately to give 2 overlapping titration curves), in a Labcyte low dead volume plate, 10 μL/well, and 10 μL of DMSO in designated wells for backfill, and 5 μM Fulvestrant (control compound) in designated wells. Compounds and controls were dispensed using a Labcyte Echo acoustic dispenser to dispense compounds with a predefined serial dilution (1.8×, 10 point, in duplicate) and appropriate backfill and control compounds (final total volume transferred was 417.5 nL and compound dispense volume ranges from 2.5 nL to 417.5 nL; 0.84% DMSO (v/v) final), ultimately producing a concentration range from 0.05 nM to 835 nM. Cell plates were incubated at 37° C., for 4 hours. Fixation and permeabilization were carried out using a Biotek EL406 plate washer and dispenser as follows. Cells were fixed by addition of 15 μL of 16% paraformaldehyde (Electron Microscopy Sciences #15710-S) directly to the 50 μL cell culture medium in each well using the peristaltic pump 5 μL cassette on a Biotek EL406 (final concentration of formaldehyde was 3.7% w/v). Samples were incubated 30 minutes. Well contents was aspirated and 50 μL/well of Phosphate Buffered Saline (PBS) containing 0.5% w/v bovine serum albumen, 0.5% v/v Triton X-100 (Antibody Dilution Buffer) was added to each well. Samples were incubated for 30 minutes. Well contents were aspirated and washed 3 times with 100 μL/well of PBS. Immunofluorescence staining of estrogen receptor alpha (ESR1) was carried out using a Biotek EL406 plate washer and dispenser as follows. The well supernatant was aspirated from the wells and 25 μL/well of anti-ESR1 mAb (F10) (Santa Cruz sc-8002) diluted 1:1000 in Antibody Dilution Buffer was dispensed. Samples were incubated for 2 hours at room temperature. Samples were washed 4 times with 100 μL/well of PBS. 25 uL (microliters)/well of secondary antibody solution (Alexafluor 488 conjugate anti-mouse IgG (LifeTechnologies # A21202) diluted 1:1000 and Hoechst 33342 1 μg/ml diluted in Antibody Dilution Buffer) were dispensed into each well. Samples were incubated for 2 hours at room temperature. Samples were washed 3 times with 100 μL/well of PBS using a Biotek EL406. Quantitative fluorescence imaging of ESR1 was carried out using a Cellomics Arrayscan V (Thermo). […]
row,Structure (SMILES),ER-alpha MCF7HCS Sinf
1,"C[C@@H]1Cc2c([nH]c3ccccc23)[C@]2(CCc3cc(OCCN4CC(CF)C4)ccc32)N1CC(C)(C)F [Example 113, (1R,3′R)-2′-(2-fluoro-2-methylpropyl)-5-(2-(3-(fluoromethyl)azetidin-1-yl)ethoxy)-3′-methyl-2,2′,3,3′,4′,9′-hexahydrospiro[indene-1,1′-pyrido[3,4-b]indole]]",−94.7%
2,"C[C@H]1Cc2[nH]c3ccccc3c2[C@H](c2c(F)cc(OCCN3CC(CF)C3)cc2F)N1CC(F)(F)CO (single isomer, unassigned) [Example 148]",−79%
3,"C[C@@H]1Cc2[nH]c3ccccc3c2[C@@H](c2c(F)cc(OCCN3CC(CF)C3)cc2F)N1CC(F)(F)CO (single isomer, unassigned) [Example 147]",−95.7%
4,"C[C@H]1CCN(CC(C)(C)F)[C@H](c2c(F)cc(OCCN3CC(CF)C3)cc2F)c2[nH]c3ccccc3c21 [Example 125, (1R,5S)-1-(2,6-difluoro-4-(2-(3-(fluoromethyl)azetidin-1-yl)ethoxy)phenyl)-2-(2-fluoro-2-methylpropyl)-5-methyl-1,2,3,4,5,10-hexahydroazepino[3,4-b]indole]",−101%
5,"C[C@@H]1Cc2c([nH]c3ccccc23)[C@@](C)(c2ccc(OCCN3CC(CF)C3)cc2)N1CC(C)(C)F [Example 135, (1R,3R)-2-(2-Fluoro-2-methylpropyl)-1-(4-(2-(3-(fluoromethyl)azetidin-1-yl)ethoxy)phenyl)-1,3-dimethyl-2,3,4,9-tetrahydro-1H-pyrido[3,4-b]indole]",−95%
6,"C[C@@H]1Cn2c(cc3ccccc32)[C@@H](c2c(F)cc(NC3CN(CCCF)C3)cc2F)N1CC(C)(C)F [Example 127, N-(3,5-Difluoro-4-((1R,3R)-2-(2-fluoro-2-methylpropyl)-3-methyl-1,2,3,4-tetrahydropyrazino[1,2-a]indol-1-yl)phenyl)-1-(3-fluoropropyl)azetidin-3-amine]",−100%
7,"C[C@@](F)(CO)CN1CCCc2c([nH]c3ccccc23)[C@H]1c1c(F)cc(OCCN2CC(CF)C2)cc1F [Example 117, (S)-3-((R)-1-(2,6-difluoro-4-(2-(3-(fluoromethyl)azetidin-1-yl)ethoxy)phenyl)-3,4,5,10-tetrahydroazepino[3,4-b]indol-2(1H)-yl)-2-fluoro-2-methylpropan-1-ol]",−93.8%
8,"C[C@@H]1Cc2c([nH]c3ccccc23)[C@]2(CCc3cc(OCCN4CC(CF)C4)ccc32)N1CC(F)(F)F [Example 114, (1R,3′R)-5-(2-(3-(fluoromethyl)azetidin-1-yl)ethoxy)-3′-methyl-2′-(2,2,2-trifluoroethyl)-2,2′,3,3′,4′,9′-hexahydrospiro [indene-1,1′-pyrido [3,4-b]indole]]",−96.6%
9,"C[C@@H]1Cc2[nH]c3ccccc3c2[C@@H](c2c(F)cc(NC3CN(CCCF)C3)cc2F)N1CC(F)(F)F [Example 152, N-(3,5-difluoro-4-((1S,3R)-3-methyl-2-(2,2,2-trifluoroethyl)-2,3,4,5-tetrahydro-1H-pyrido[4,3-b]indol-1-yl)-phenyl)-1-(3-fluoropropyl) azetidin-3-amine]",−99%
10,"C[C@H]1Cc2sc3ccccc3c2[C@@H](c2ccc(OCCN3CC(CF)C3)cc2)N1CC(C)(C)F [Example 131, (1R,3S)-2-(2-fluoro-2-methylpropyl)-1-(4-(2-(3-(fluoromethyl)azetidin-1-yl)ethoxy)phenyl)-3-methyl-1,2,3,4-tetrahydrobenzo[4,5]thieno[3,2-c]pyridine]",−99%
11,"C[C@@H]1Cc2c([nH]c3ccccc23)[C@@]2(CCc3cc(OCCN4CC(CF)C4)ccc32)N1CC(F)(F)F [Example 115, (1S,3′R)-5-(2-(3-(fluoromethyl)azetidin-1-yl)ethoxy)-3′-methyl-2′-(2,2,2-trifluoroethyl)-2,2′,3,3′,4′,9′-hexahydrospiro [indene-1,1′-pyrido [3,4-b]indole]]",−98%
12,"CC(C)C(=O)N1[C@H](c2c(F)cc(OCCN3CC(CF)C3)cc2F)c2oc3ccccc3c2C[C@H]1C (single isomer, unassigned) [Example 101]",−94.5%
13,"C[C@H]1Cc2c(sc3ccccc23)[C@H](c2c(F)cc(NC3CN(CCCF)C3)cc2F)N1CC(F)(F)CO (single isomer, unassigned) [Example 160]",−96.9%
14,"C[C@H]1CN(CC(C)(C)F)[C@H](c2c(F)cc(OCCN3CC(CF)C3)cc2F)c2[nH]c3ccccc3c21 (single isomer, unassigned) [Example 107]",−97.8%
15,"C[C@@H]1Cc2[nH]c3ccccc3c2[C@@H](c2c(F)cc(OC3CN(CCCF)C3)cc2F)N1CC(F)(F)CO (relative stereo) [Example 144, trans-3-(1-(2,6-difluoro-4-(1-(3-fluoropropyl)azetidin-3-yloxy)phenyl)-3-methyl-3,4-dihydro-1H-pyrido[4,3-b]indol-2(5H)-yl)-2,2-difluoropropan-1-ol]",−98.8%

# Same assay, conditions: 4 hours, plateau of the maximal effect, DMSO and fulvestrant define 0% and 100% change in ESR1, Table 1b
row,Structure (SMILES),ERalpha (WT) MCF7HCS (Sinf)
1,"C[C@@H]1Cc2oc3ccccc3c2[C@@H](c2c(F)cc(OCCN3CC(CF)C3)cc2F)N1CC(C)(C)F (stereo in doubt) [Example 167, 1-(2,6-difluoro-4-(2-(3-(fluoromethyl)azetidin-1-yl)ethoxy)phenyl)-2-(2-fluoro-2-methylpropyl)-3-methyl-1,2,3,4-tetrahydrobenzofuro [3,2-c]pyridine]",−96
2,"C[C@H]1Cc2sc3ccccc3c2[C@H](c2c(F)cc(NC3CN(CCCF)C3)cc2F)N1CC(F)(F)CO [Example 165, 3-((1S,3S)-1-(2,6-difluoro-4-((1-(3-fluoropropyl)azetidin-3-yl)amino)phenyl)-3-methyl-3,4-dihydrobenzo[4,5]thieno[3,2-c]pyridin-2(1H)-yl)-2,2-difluoropropan-1-ol]",−92.3
3,"C[C@@H]1Cn2c(cc3ccccc32)[C@@H](c2c(F)cc([C@H](O)C3CN(CCCF)C3)cc2F)N1CC(F)(F)CO (single isomer, unassigned) [Example 164]",−98.6
